US20070078185A1, “Methods and compositions for controlling invertebrate pests” (priority 2005, published 2007)

How the values were obtained:
[1] = test system: C. elegans; conditions: exogenous octopamine (Horvitz et al., Science 216:1012-1014 (1982)); cited from earlier work
[2] = test system: C. elegans; assay: In vivo response test: suppression of head oscillations in response to anterior touch, C. elegans on agar plates; conditions: compound added to C. elegans grown on agar plates at 0.3 mg/ml
Protocol: Behavioral assays were performed with young adults at room temperature (22-24° C.) and the different genotypes were scored in parallel on independent days. Egg-laying assays were performed as described by Koelle and Horvitz (Cell 84:115 (1996)). Suppression of head oscillations was tested by striking animals that were outside the bacterial lawn with a fine eyelash behind the posterior bulb of the pharynx; head oscillations were scored during backing response. Nose touch, osmotic avoidance touch were tested as previously described (see, for example, Way et al., Genes Dev. 3:1823-1833 (1989); or Bargmann et al., Cold Spring Harb. Symp. Quant. Biol. 55:529-538 (1990)). […] Animals were tested twenty-four hours after they were picked as late L4. Laser-ablated animals were tested at least ten times. […] Laser ablated animals were tested at least 20 times. Reversal assays were performed as described by Tsalik et al., J. Neurobiol. 56:178-197 (2003). Synthesis of 4-hydrazinomethyl-benzene-1,3-diol (compound 1). [drawing 4]
Alternatively, putative tyrosine decarboxylase inhibitors can be screened in vivo by observing its effect on invertebrates. […] Furthermore, a tyrosine decarboxylase inhibitor is expected to cause egg laying defects in nematodes, fruit flies, and other invertebrates. […]

[3] = test system: C. elegans; assay: Egg-laying assay with exogenous amine on Petri plates; format: in vivo; conditions: wild-type animals, Petri plates with bacteria containing 20 mM tyramine
Protocol: FIGS. 5A-SC are graphs showing that tdc-1 mutant nematodes are hyperactive in egg laying. […] Error bars indicate standard errors of the means. […] Single wild-type animals were transferred to Petri dishes with bacteria containing either no tyramine (n=13) or 20 mM tyramine (n=12). At the indicated times after transfer the number of eggs laid was counted. Error bars indicate standard errors ofthe means.
We therefore tested the effect of exogenous tyramine on egg laying behavior. Egg laying was inhibited on Petri plates containing 20 mM tyramine (FIG. 5C). […] Egg laying is regulated in part by the serotonergic HSN neurons, which induce muscle contraction of the vulva muscles (Trent et al., Genetics 104:619-647 (1983)).
Behavioral assays were performed with young adults at room temperature (22-24° C.) and the different genotypes were scored in parallel on independent days. Egg-laying assays were performed as described by Koelle and Horvitz (Cell 84:115 (1996)). Suppression of head oscillations was tested by striking animals that were outside the bacterial lawn with a fine eyelash behind the posterior bulb of the pharynx; head oscillations were scored during backing response. Nose touch, osmotic avoidance touch were tested as previously described (see, for example, Way et al., Genes Dev. 3:1823-1833 (1989); or Bargmann et al., Cold Spring Harb. Symp. Quant. Biol. 55:529-538 (1990)). […]

In the case of `NCC(O)c1ccc(O)cc1` (stereo not drawn) [octopamine], the “effect of exogenous octopamine on egg laying” value [1] is listed as “inhibitory effect”.
For `NC(CO)C(=O)NNCc1ccc(O)cc1O` (racemic) [compound 2, N-(DL-seryl)-N′-(2,4,-dihydroxybenzyl) hydrazine], the “suppression of head oscillations in response to anterior touch” value [2] was “fail to suppress head oscillations”.
For `NCCc1ccc(O)cc1` [tyramine], the “effect of exogenous tyramine on egg laying” value [3] was “inhibited”.
